# Reference: patent US12576107B2, “Methods of treating chronic inflammatory diseases” (METIMEDI PHARMACEUTICALS CO., LTD., priority 2018, dated 2026)
# Legend:
# lactate dehydrogenase B = experiment: Immunocytochemistry of lactate dehydrogenase B in ARPE-19 cells; assay type: cell-based, Human; conditions: 2.5 mM, hypoxia
# Experimental: Human retinal pigment epithelium cell line, ARPE-19, was purchased from American Type Culture Collection (Manassas, VA, USA). The ARPE-19 cells were maintained in RPMI1640 containing 10% fetal bovine serum (Life Technologies, Gaithersburg, MD, USA), 100 IU/ml penicillin, and 100 μg/ml streptomycin (Welgene, Daegu, South Korea).
# ARPE-19 and SK-N-SH cells were fixed on bio-coated coverslips (BD bioscience, San Jose, CA, USA) by 4% PFA for 20 min and then incubated with the primary antibodies for 15 h. The primary antibodies were as follows: HIF-1a (1:300, BD Biosciences, San Jose, CA, USA); LDH-A (1:300, Santa Cruz Biotechnology, Santa Cruz, CA, USA); LDH-B (1:300, Santa Cruz Biotechnology, Santa Cruz, CA, USA); NF-κB (1:300, Santa Cruz Biotechnology, Santa Cruz, CA, USA); TLR-4 (1:300, Santa Cruz Biotechnology, Santa Cruz, CA, USA); apoE (1:200, Santa Cruz Biotechnology, Santa Cruz, CA, USA). After PBS wash, the cells were incubated with anti-mouse secondary biotinylated antibody (1:2000, Vector Laboratorie, Burlingame, CA, USA) and visualized with streptavidin conjugated to Fluorescein (Vector Laboratorie, Burlingame, CA, USA). […] Confocal fluorescence images were obtained with confocal laser scanning microscopy (LSCM, Nikon A1+, Tokyo, Japan) under a 60× oil immersion lens.
# laser-induced AMD mice = experiment: Laser-induced age-related macular degeneration (AMD) animal model; assay type: in vivo, C57BL/6 mice
# Experimental: Six-week-old female C57BL/6 mice (20-25 g) were purchased from Orient (Charles River Korea, Seoul, Korea). All animals were maintained in a 12-hour light/dark cycle (light on, 08:00) at 22° C.-25° C. with free access to food and water. The mice were placed individually in an induction chamber, and anesthesia was induced with 2% isoflurane (HANA PHARM CO., Seoul, Korea). The lesions were induced in each eye of the mice by laser photocoagulation (SDL405-700, SD Laser, China). The laser pulses were from blue laser (wavelength, 405 nm; SD Laser). Laser parameters were 100 μm spot size, 700 mw power and 1 s exposure time. A total of 15 mice were randomized into three groups: (i) not subjected to laser induction (n=3); (ii) subjected to laser burns and injected with the vehicle buffer (n=5); and (iii) CaLa, 2 mg/kg/day (B.I.D) (n=7). CaLa treatment was started the days after laser photocoagulation and was treated subcutaneously for 14 days. (33, 34)
# The histopathologic examination of retinal lesions was performed 2 weeks after 2 mg/kg of CaLa was administered subcutaneously. The enucleated eyes were fixed with 4% paraformaldehyde (PFA) for 24 h at 4° C., and eyes obtained by removing the anterior segments were washed three times in phosphate-buffered saline. The fixed flat-mounts were dehydrated in a graded series of ethanol and embedded in paraffin. […] The choroidal lesion and neovascularization on the flat-mounts were observed by confocal microscopy (Carl Zeiss, Oberkochen, Germany).
# Animals. […] Six-week-old C57BL mice were purchased from Orient (Charles River Korea, Seoul, Korea). All animals were maintained in a 12-hour light/dark cycle (light on, 08:00) at 22-25° C. with free access to food and water.
# Calcium lactate was purchased from Sigma Aldrich (St. Louis, MO, USA).
# Animal model for ocular disease. The mice were placed individually in an induction chamber, and anesthesia was induced with 2% isoflurane (HANA PHARM CO., Seoul, Korea). The laser-induced rupture of Bruch's membrane was induced in both eyes of mice by laser photocoagulation (SDL405-700, SD Laser, China). […]
# [1] = tested on: collagen-induced rheumatoid arthritis mice; experiment: Rheumatoid arthritis model, Type II collagen induction; assay type: in vivo, DBA1/J mice; conditions: 21 days after treatment
# Experimental: Animals. […] Six-week old male DBA1/J mice were obtained from Japan SLC Inc. (Shizuoka, Japan) and bred under specific-pathogen-free (SPF) conditions. All animals were maintained in a 12-hour light/dark cycle at 22-25° C. with free access to food and water.
# Preparation of agents. Two mg/mL Type II collagen was mixed with the same volume of complete Freund's adjuvant (CFA) for primary induction of rheumatoid arthritis. Two mg/mL Type II collagen was mixed with the same volume of incomplete Freund's adjuvant (IFA) for secondary induction of rheumatoid arthritis.
# Primary induction: 0.1 mL of the mixed solution (Type II collagen+CFA) was injected subcutaneously into the area of 1.5 cm from the base of tail of mice. The administration site and depth were the same in all mice.
# Secondary induction: 21 days after primary induction, 0.1 mL of the mixed solution (Type II collagen+IFA) was injected subcutaneously into the area of 1.5 cm from the base of tail of mice. The administration site and depth were the same in all mice.
# Histological analysis. The mice foot and knee joint were dissected and fixed (4% paraformaldehyde) and decalcified for 2 days at 4° C. […] Mount with mounting medium.
# [2] = tested on: Indomethacin-induced colitis rats; experiment: Colitis model, subcutaneous Indomethacin; assay type: in vivo, Sprague-Dawley (SD) rats; conditions: Four-week after treatment
# Experimental: Animals. […] Six-week old male Sprague-Dawley (SD) rats were obtained from Samtako Co. (Osan, Gyeonggi-do, Republic of Korea) and bred under specific-pathogen-free (SPF) conditions. All animals were maintained in a 12-hour light/dark cycle at 22-25° C. with free access to food and water.
# Agents and animal model. To induce Crohn's disease and colitis, Indomethacin was purchased from Sigma Chemical (St. Louis, Missouri, USA) and was dissolved in saline. […] Two models of inflammatory bowel disease were used. Crohn's disease was induced by oral administration of Indomethacin (7 mg/kg), and colitis was induced by subcutaneous injections of Indomethacin (7 mg/kg) daily at a 24 h intervals (FIGS. 40 and 42).
# Histological analysis. The fixed flat-mounts were dehydrated in a graded series of ethanol and embedded in paraffin.
smiles,measurement,setting,value
CC(O)C(=O)[O-].CC(O)C(=O)[O-].[Ca+2] (centres unmarked) [calcium lactate],"lactate dehydrogenase B, immunocytochemistry",lactate dehydrogenase B,increased
same,"choroidal lesion (fluorescence, flat-mount)",laser-induced AMD mice; 2 mg/kg daily subcutaneous,restored
same,"choroidal neovascularization (fluorescence, flat-mount)",laser-induced AMD mice; 2 mg/kg daily subcutaneous,restored
same,morphology of the retinal pigment epithelium (H&E),"laser-induced AMD mice; 2 mg/kg subcutaneous, choroidal flat-mount",recovered
same,inflammatory edema in the toes and knee joint,[1]; 2 mg/kg daily subcutaneous,clearly decreased
same,morphology of toes and knee joint vs. normal control,[1],morphologically recovered
same,"Superficial ulceration, polyp, and inflammation in the intestinal tissues",[2]; 2 mg/kg daily subcutaneous,clearly decreased
same,morphology of intestinal tissues vs. normal control,[2],morphologically recovered
